Common to all, as to assay: Whole blood assay, LPS stimulation, MSD cytokine detection
The subject of one experiment is TNF-α. In kind it is cell-based. Conditions: fresh whole bovine blood. As for the experimental part: (§1) Compounds of the invention were evaluated against a positive control for their ability to inhibit LPS-induced IL-1p and TNF-α as an overall evaluation of relative potency and modulation of target pathways.
(§2) In the bovine whole blood in vitro screening assay the inhibition of TNFα as induced by stimulation by lipopolysaccharide (LPS) and as measured by half the maximal inhibitory concentration (IC50) is recognized as the primary biomarker of immunomodulation potency upon pretreatment with the compounds of the invention. IL-1β is a mediator of the inflammation response and is involved in a number of cellular activities including proliferation, differentiation and apoptosis. IL-1β is also released upon cellular stress or cytotoxicity or upon TLR stimulation. In the bovine whole blood assay the stimulation of IL-1β release upon increasing concentration of test compound is seen as a potential cellular toxicity signal as induced by the test compound. In order to estimate a therapeutic index from the in vitro assay a differential between the TNFα IC50 (immunomodulation potency) versus the perceived cellular toxicity concentration (IL-1β release or overstimulation) was utilized. […] As the in vitro assay index approaches 1 it is proposed that the balance between immunomodulation and cytotoxicity would be too narrow in order to achieve an efficacious dose in vivo.

The next experiment has as its system IL-6. It is filed as cell-based. Particulars: fresh whole bovine blood.
In the next experiment the test system is IL-1β. In kind it is cell-based, bovine. Particulars: fresh whole bovine blood, LPS stimulation; drug concentration giving overstimulation (OS) of IL-1β. The method, then: as §1, §2

For orientation: IC50 means the concentration that gives 50% inhibition. Read a low IC50 as greater potency in that assay. For `CC[C@H]1OC(=O)[C@H](C)[C@@H](O[C@H]2C[C@@](C)(OC)[C@](O)(CNC(C)C)[C@H](C)O2)[C@H](C)[C@@H](O[C@@H]2O[C@H](C)C[C@H](N(C)C)[C@H]2Oc2ccc(F)cc2)[C@](C)(O)C[C@@H](C)CN[C@H](C)[C@@H](O)[C@]1(C)O` [Example E-117], the IC50 came to 6 µM in the experiment on TNF-α and 11 µM with IL-6. The “IL-1ß OS of LPS” value with IL-1β was 16 µM.

On to `CC[C@H]1OC(=O)[C@H](C)[C@@H](O[C@H]2C[C@@](C)(OC)[C@](O)(CNC3CCOCC3)[C@H](C)O2)[C@H](C)[C@@H](O[C@@H]2O[C@H](C)C[C@H](N(C)C)[C@H]2Oc2ccccc2)[C@](C)(O)C[C@@H](C)CN[C@H](C)[C@@H](O)[C@]1(C)O` [Example E-120], for which the IC50 with TNF-α worked out at 8 µM; in the experiment on IL-6, 11 µM. In addition, the “IL-1ß OS of LPS” value in the experiment with IL-1β is 16 µM.

As to `CC[C@H]1OC(=O)[C@H](C)[C@@H](O[C@H]2C[C@@](C)(OC)[C@](O)(CNC3CC3)[C@H](C)O2)[C@H](C)[C@@H](O[C@@H]2O[C@H](C)C[C@H](NC)[C@H]2Oc2ccccc2)[C@](C)(O)C[C@@H](C)CN[C@H](C)[C@@H](O)[C@]1(C)O` [Example E-125], the IC50 is 5 µM in the experiment with TNF-α and 8 µM in the experiment with IL-6. In addition, in the experiment with IL-1β, the “IL-1ß OS of LPS” value was found to be 16 µM.

In the case of `CC[C@H]1OC(=O)[C@H](C)[C@@H](O[C@H]2C[C@@](C)(OC)[C@](O)(CNC(C)C)[C@H](C)O2)[C@H](C)[C@@H](O[C@@H]2O[C@H](C)C[C@H](NC)[C@H]2Oc2ccccc2)[C@](C)(O)C[C@@H](C)CN[C@H](C)[C@@H](O)[C@]1(C)O` [Example E-127], the values for the IC50 in the experiment on TNF-α and in the experiment on IL-6 were 19 µM and 44 µM, respectively. Also, in the experiment on IL-1β, the “IL-1ß OS of LPS” value amounted to 40 µM.

For the compound `CC[C@H]1OC(=O)[C@H](C)[C@@H](O[C@H]2C[C@@](C)(OC)[C@](O)(CN(C)CCN(C)C)[C@H](C)O2)[C@H](C)[C@@H](O[C@@H]2O[C@H](C)C[C@H](NC)[C@H]2Oc2ccccc2)[C@](C)(O)C[C@@H](C)CN[C@H](C)[C@@H](O)[C@]1(C)O` [Example E-128], the IC50 is 100 µM in the experiment on TNF-α and 147 µM in the experiment on IL-6. Moreover, in the experiment with IL-1β, the “IL-1ß OS of LPS” value was 100 µM.

In the case of `CC[C@H]1OC(=O)[C@H](C)[C@@H](O[C@H]2C[C@@](C)(OC)[C@](O)(CNCCOC)[C@H](C)O2)[C@H](C)[C@@H](O[C@@H]2O[C@H](C)C[C@H](NC)[C@H]2Oc2ccccc2)[C@](C)(O)C[C@@H](C)CN[C@H](C)[C@@H](O)[C@]1(C)O` [Example E-130], the IC50 with TNF-α amounted to 32 µM; in the experiment with IL-6, 71 µM. In the experiment on IL-1β, the “IL-1ß OS of LPS” value is 40 µM.

As to `CC[C@H]1OC(=O)[C@H](C)[C@@H](O[C@H]2C[C@@](C)(OC)[C@](O)(CNCCCOC)[C@H](C)O2)[C@H](C)[C@@H](O[C@@H]2O[C@H](C)C[C@H](NC)[C@H]2Oc2ccccc2)[C@](C)(O)C[C@@H](C)CN[C@H](C)[C@@H](O)[C@]1(C)O` [Example E-131], the results for the IC50 in the experiment with TNF-α and in the experiment on IL-6 were 35 µM and 52 µM, respectively. Also, in the experiment with IL-1β, the “IL-1ß OS of LPS” value worked out at 100 µM.

Consider `CC[C@H]1OC(=O)[C@H](C)[C@@H](O[C@H]2C[C@@](C)(OC)[C@](O)(CNCC3CC3)[C@H](C)O2)[C@H](C)[C@@H](O[C@@H]2O[C@H](C)C[C@H](NC)[C@H]2Oc2ccccc2)[C@](C)(O)C[C@@H](C)CN[C@H](C)[C@@H](O)[C@]1(C)O` [Example E-132], for which the results for the IC50 in the experiment on TNF-α and in the experiment on IL-6 were 31 µM and 60 µM, respectively. The “IL-1ß OS of LPS” value in the experiment on IL-1β is 100 µM.

On to `CC[C@H]1OC(=O)[C@H](C)[C@@H](O[C@H]2C[C@@](C)(OC)[C@](O)(CNn3ccnc3)[C@H](C)O2)[C@H](C)[C@@H](O[C@@H]2O[C@H](C)C[C@H](NC)[C@H]2Oc2ccccc2)[C@](C)(O)C[C@@H](C)CN[C@H](C)[C@@H](O)[C@]1(C)O` [Example E-138], for which the IC50 in the experiment with TNF-α stood at 48 µM; in the experiment with IL-6, 87 µM. For the same compound, in the experiment on IL-1β, the “IL-1ß OS of LPS” value was found to be 40 µM.

Turning to `CC[C@H]1OC(=O)[C@H](C)[C@@H](O[C@H]2C[C@@](C)(OC)[C@](O)(CNC3CCC3)[C@H](C)O2)[C@H](C)[C@@H](O[C@@H]2O[C@H](C)C[C@H](N(C)C)[C@H]2Oc2ccccc2)[C@](C)(O)C[C@@H](C)CN[C@H](C)[C@@H](O)[C@]1(C)O` [Example E-141], the IC50 with TNF-α amounted to 7 µM; with IL-6, 19 µM. Also, in the experiment with IL-1β, the “IL-1ß OS of LPS” value was 16 µM.

On to `CC[C@H]1OC(=O)[C@H](C)[C@@H](O[C@H]2C[C@@](C)(OC)[C@](O)(CNC(C)C)[C@H](C)O2)[C@H](C)[C@@H](O[C@@H]2O[C@H](C)C[C@H](N(C)C)[C@H]2Oc2ccccc2)[C@](C)(O)C[C@@H](C)CN[C@H](C)[C@@H](O)[C@]1(C)O` [Example E-142], for which the IC50 in the experiment on TNF-α was found to be 4 µM; in the experiment on IL-6, 18 µM. For the same compound, the “IL-1ß OS of LPS” value in the experiment with IL-1β worked out at 16 µM.

For `CC[C@H]1OC(=O)[C@H](C)[C@@H](O[C@H]2C[C@@](C)(OC)[C@](O)(CN(C)CCN(C)C)[C@H](C)O2)[C@H](C)[C@@H](O[C@@H]2O[C@H](C)C[C@H](N(C)C)[C@H]2Oc2ccccc2)[C@](C)(O)C[C@@H](C)CN[C@H](C)[C@@H](O)[C@]1(C)O` [Example E-143], the IC50 is 34 µM with TNF-α and 86 µM in the experiment on IL-6. Besides, in the experiment with IL-1β, the “IL-1ß OS of LPS” value is 40 µM.

As to `CC[C@H]1OC(=O)[C@H](C)[C@@H](O[C@H]2C[C@@](C)(OC)[C@](O)(CNCCN(C)C)[C@H](C)O2)[C@H](C)[C@@H](O[C@@H]2O[C@H](C)C[C@H](N(C)C)[C@H]2Oc2ccccc2)[C@](C)(O)C[C@@H](C)CN[C@H](C)[C@@H](O)[C@]1(C)O` [Example E-144], the results for the IC50 with TNF-α and with IL-6 were 8 µM and 87 µM, respectively. Further, the “IL-1ß OS of LPS” value in the experiment with IL-1β was 40 µM.

On to `CC[C@H]1OC(=O)[C@H](C)[C@@H](O[C@H]2C[C@@](C)(OC)[C@](O)(CNCCOC)[C@H](C)O2)[C@H](C)[C@@H](O[C@@H]2O[C@H](C)C[C@H](N(C)C)[C@H]2Oc2ccccc2)[C@](C)(O)C[C@@H](C)CN[C@H](C)[C@@H](O)[C@]1(C)O` [Example E-145], for which the IC50 in the experiment on TNF-α came to 17 µM; in the experiment on IL-6 it was 42 µM. For the same compound, the “IL-1ß OS of LPS” value with IL-1β is more than 250 µM.

Consider `CC[C@H]1OC(=O)[C@H](C)[C@@H](O[C@H]2C[C@@](C)(OC)[C@](O)(CNCCCOC)[C@H](C)O2)[C@H](C)[C@@H](O[C@@H]2O[C@H](C)C[C@H](N(C)C)[C@H]2Oc2ccccc2)[C@](C)(O)C[C@@H](C)CN[C@H](C)[C@@H](O)[C@]1(C)O` [Example E-146], for which the IC50 was determined as 12 µM with TNF-α and 45 µM in the experiment with IL-6. Moreover, the “IL-1ß OS of LPS” value in the experiment on IL-1β is 40 µM.

Turning to `CCCNC[C@]1(O)[C@H](C)O[C@@H](O[C@H]2[C@H](C)[C@@H](O[C@@H]3O[C@H](C)C[C@H](N(C)Cc4ccc(OC)cc4)[C@H]3Oc3ccccc3)[C@](C)(O)C[C@@H](C)CN[C@H](C)[C@@H](O)[C@](C)(O)[C@@H](CC)OC(=O)[C@@H]2C)C[C@@]1(C)OC` [Example E-147], the values for the IC50 in the experiment on TNF-α and in the experiment on IL-6 were 6 µM and 5 µM, respectively. The “IL-1ß OS of LPS” value in the experiment on IL-1β worked out at 4 µM.

Take `CCCNC[C@]1(O)[C@H](C)O[C@@H](O[C@H]2[C@H](C)[C@@H](O[C@@H]3O[C@H](C)C[C@H](N(C)Cc4ccccc4)[C@H]3Oc3ccccc3)[C@](C)(O)C[C@@H](C)CN[C@H](C)[C@@H](O)[C@](C)(O)[C@@H](CC)OC(=O)[C@@H]2C)C[C@@]1(C)OC` [Example E-148]: the IC50 in the experiment with TNF-α came out at 2 µM; in the experiment with IL-6, 1 µM. Also, the “IL-1ß OS of LPS” value in the experiment with IL-1β was 1 µM.

Consider `CCCNC[C@]1(O)[C@H](C)O[C@@H](O[C@H]2[C@H](C)[C@@H](O[C@@H]3O[C@H](C)C[C@H](N(C)Cc4cccnc4)[C@H]3Oc3ccccc3)[C@](C)(O)C[C@@H](C)CN[C@H](C)[C@@H](O)[C@](C)(O)[C@@H](CC)OC(=O)[C@@H]2C)C[C@@]1(C)OC` [Example E-149], for which the IC50 in the experiment with TNF-α came out at 10 µM; with IL-6 it was 6 µM. Besides, in the experiment on IL-1β, the “IL-1ß OS of LPS” value came out at 2 µM.

For the compound `CCCNC[C@]1(O)[C@H](C)O[C@@H](O[C@H]2[C@H](C)[C@@H](O[C@@H]3O[C@H](C)C[C@H](N(C)Cc4nccs4)[C@H]3Oc3ccccc3)[C@](C)(O)C[C@@H](C)CN[C@H](C)[C@@H](O)[C@](C)(O)[C@@H](CC)OC(=O)[C@@H]2C)C[C@@]1(C)OC` [Example E-150], the IC50 in the experiment on TNF-α stood at 6 µM; in the experiment with IL-6, 3 µM. For the same compound, the “IL-1ß OS of LPS” value with IL-1β amounted to 1 µM.

For the compound `CCCNC[C@]1(O)[C@H](C)O[C@@H](O[C@H]2[C@H](C)[C@@H](O[C@@H]3O[C@H](C)C[C@H](NC)[C@H]3Oc3ccc(OC)cc3)[C@](C)(O)C[C@@H](C)CN(C)[C@H](C)[C@@H](O)[C@](C)(O)[C@@H](CC)OC(=O)[C@@H]2C)C[C@@]1(C)OC` [Example E-151], the IC50 in the experiment with TNF-α and with IL-6 was 23 µM throughout. Also, the “IL-1ß OS of LPS” value in the experiment on IL-1β was 16 µM.

With `CCCNC[C@]1(O)[C@H](C)O[C@@H](O[C@H]2[C@H](C)[C@@H](O[C@@H]3O[C@H](C)C[C@H](NC)[C@H]3Oc3ccccc3)[C@](C)(O)C[C@@H](C)CN(C)[C@H](C)[C@@H](O)[C@](C)(O)[C@@H](CC)OC(=O)[C@@H]2C)C[C@@]1(C)OC` [Example E-152], the results for the IC50 in the experiment with TNF-α and in the experiment with IL-6 were 23 µM and 21 µM, respectively. The “IL-1ß OS of LPS” value with IL-1β stood at 16 µM.

Source of the values: patent US12390441B2, “Immunomodulating o-het/aryl azalides” (Zoetis Services LLC, priority 2020, dated 2025).
